Patent US4656173A, “Antipsychotic benzisothiazole S-oxide compound” (Bristol-Myers Company, priority 1985, dated 1987)
pIC50: −log10 of the molar value.

Columns and labels:
[1] = target: Dopaminergic (D2) receptor binding site (Homo sapiens, UniProt P14416); experiment: In vitro receptor binding, dopaminergic (D2); conditions: predictive correlate: antipsychotic efficacy, EPS liability
[2] = target: Serotoninergic (S2) receptor binding site (Homo sapiens, UniProt P28223); experiment: In vitro receptor binding, serotoninergic (S2); conditions: predictive correlate: lack of EPS (?)
Chain of Serotoninergic (S2) receptor binding site (P28223 whole entry): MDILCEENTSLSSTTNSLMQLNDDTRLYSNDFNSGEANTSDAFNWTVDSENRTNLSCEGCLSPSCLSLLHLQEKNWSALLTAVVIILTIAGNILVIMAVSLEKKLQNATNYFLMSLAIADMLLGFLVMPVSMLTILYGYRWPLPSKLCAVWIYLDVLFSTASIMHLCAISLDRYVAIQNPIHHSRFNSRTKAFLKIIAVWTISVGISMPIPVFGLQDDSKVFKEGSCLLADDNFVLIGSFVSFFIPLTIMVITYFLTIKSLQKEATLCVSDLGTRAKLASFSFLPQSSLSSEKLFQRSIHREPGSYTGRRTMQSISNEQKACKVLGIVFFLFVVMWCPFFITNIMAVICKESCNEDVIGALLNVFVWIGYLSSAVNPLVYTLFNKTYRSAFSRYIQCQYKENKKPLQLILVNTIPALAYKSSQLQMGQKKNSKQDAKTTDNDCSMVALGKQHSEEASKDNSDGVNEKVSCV

[3] = target: α-adrenergic (α1) receptor binding site; experiment: In vitro receptor binding, α-adrenergic (α1); conditions: predictive correlate: postural hypotension, palpitations
[4] = target: Muscarinic receptor binding site; experiment: In vitro receptor binding, muscarinic; conditions: predictive correlate: dry mouth, constipation
[5] = Metabolic interconversion in rats; type: in vivo
Source text: (§1) Currently, there is insufficient information available to confirm that compound I is a metabolite of BMY 13859. […] Such interconversions have been previously reported, as for sulindac, supra.

[6] = Metabolic interconversion in humans; type: in vivo; conditions: high pressure liquid chromatography
Source text: as §1

[7] = Blood plasma concentration after dosing of rats; type: in vivo; conditions: 30 minutes after dosing
Source text: In this regard, compound I represents an antipsychotic agent giving an improved neuropharmacological profile compared with BMY 13859.

[8] = system: avoidance response to electrical shock in trained fasted rats; experiment: Conditioned Avoidance Response (CAR); type: in vivo
Source text: 1. Conditioned Avoidance Response (CAR)--measure of a drug's tranquilizing activity as determined by its attenuation of avoidance response to electrical shock in trained fasted rats. cf: Albert, Pharmacologist, 4, 152 (1962); Wu, et al, J. Med. Chem., 12, 876-881 (1969).

[9] = system: apomorphine-induced stereotypy (dopaminergic activity in rats); experiment: Inhibition of Apomorphine-Induced (APO) Stereotypy; type: in vivo
Source text: 2. Inhibition of Apomorphine-Induced (APO) Stereotypy --an assessment of blockade of dopaminergic activity in rats as measured by attenuation of the behavioral syndrome caused by the dopamine agonist, apomorphine. cf: Janssen, et al., Arzneimittel. Forsch., 17, 841 (1966).

Catalepsy (induction) = type: in vivo; conditions: rat, in vivo; oral; rats; read-out: oral ED50 in inducing catalepsy
Source text: (§2) 3. Catalepsy--drug-induced catalepsy in rats is predictive of potential extrapyramidal symptoms (EPS) in man. cf: Costall, et al, Psychopharmacologia, 34, 233-241 (1974); Berkson, J. Amer. Statist. Assoc., 48, 565-599 (1953).

[10] = system: drug-induced catalepsy in rats; experiment: Catalepsy (induction); type: in vivo; conditions: oral
Source text: as §2

[11] = Antipsychotic activity testing of dioxide (II); conditions: in vivo
[12] = Kwan and Heimlich, Internat. J. of Pharmaceutics, 6, (1980) 237-241, cited for biotransformations; cited from earlier work

Chain of Dopaminergic (D2) receptor binding site (P14416 whole entry): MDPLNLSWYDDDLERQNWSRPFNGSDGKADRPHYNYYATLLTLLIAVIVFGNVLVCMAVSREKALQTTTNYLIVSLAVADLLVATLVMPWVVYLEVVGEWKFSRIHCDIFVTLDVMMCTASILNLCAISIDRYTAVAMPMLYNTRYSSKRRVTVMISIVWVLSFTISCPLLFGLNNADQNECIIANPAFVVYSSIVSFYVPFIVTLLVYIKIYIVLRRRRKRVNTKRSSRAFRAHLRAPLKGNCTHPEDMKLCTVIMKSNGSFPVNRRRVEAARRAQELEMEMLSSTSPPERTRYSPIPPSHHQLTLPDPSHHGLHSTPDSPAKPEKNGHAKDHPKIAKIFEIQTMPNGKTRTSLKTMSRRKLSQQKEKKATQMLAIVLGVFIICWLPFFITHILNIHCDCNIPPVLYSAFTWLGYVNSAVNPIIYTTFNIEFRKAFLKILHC

Molecule `O=C1CC2(CCCC2)CC(=O)N1CCCCN1CCN(c2nsc3ccccc23)CC1` [BMY 13859, reference compound] has a pIC50 [1] of 8.00, a pIC50 [2] of 9.00 and a pIC50 [3] of 7.30. For the same molecule, the pIC50 [4] was < 6.00, the “compound formed after administration of BMY 13859” value ([5]; high pressure liquid chromatography) was “a compound which co-elutes (high pressure liquid chromatography) with compound I is formed” and the “compound formed after administration of BMY 13859” value [6] was “a compound which co-elutes (high pressure liquid chromatography) with compound I is formed”. For the same molecule, the “concentration of administered agent in blood plasma versus the other (interconverted) agent” value [7] was “several-fold higher in concentration”.

With `O=C1CC2(CCCC2)CC(=O)N1CCCCN1CCN(c2n[s+]([O-])c3ccccc23)CC1` (stereo not shown) [Compound I, 8-[4-[4-(1-oxo-1,2-benzisothiazol-3-yl)-1-piperazinyl]butyl]-8-azaspiro[4.5]decane-7,9-dione] the pIC50 [1] was < 6.00, the pIC50 [2] was 6.52 and the pIC50 [3] was 6.48. For the same molecule, the pIC50 [4] was < 6.00, the “activity in the CAR test” value [8] was “potent activity” and the “activity in the APO stereotypy test” value [9] was “potent activity”. The ED50 (Catalepsy (induction)) was > 30 mg/kg, the “activity in inducing catalepsy” value [10] was “inactive” and the “compound formed after administration of compound I” value [5] was “authentic BMY 13859 is formed in rats”. The “concentration of administered agent in blood plasma versus the other (interconverted) agent” value [7] was “several-fold higher in concentration”.

For `O=C1CC2(CCCC2)CC(=O)N1CCCCN1CCN(C2=NS(=O)(=O)c3ccccc32)CC1` [II], the antipsychotic activity [11] was “devoid of antipsychotic activity”.

For `CC1=C(CC(=O)O)c2cc(F)ccc2C1=Cc1ccc([S+](C)[O-])cc1` (stereo not shown) [sulindac], the “pharmacological activity of sulindac” value [12] is given as “appears to reside only in the sulfide metabolite”.
